Measured values reported in patent publication US20250215030A1, “STAT MODULATORS AND USES THEREOF” (Recludix Pharma, Inc., priority 2022, published 2025).

How the values were obtained:
[1] = molecular target: T1, Recombinant STAT3 protein (STAT3(G127-I722)) (Homo sapiens, UniProt P40763); assay: STAT3 Fluorescence Polarization (FP) Assay; format: binding; conditions: STAT3(G127-I722) 25 nM, probe 5-FAM-GpYLPQTV-NH2 2 nM, 45-minute incubation
T1 construct: STAT3(G127-I722)
How it was run: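 Serially diluted compounds (1% DMSO) were mixed with 2 nM fluorescent phosphotyrosine peptide and 25 nM STAT3 construct G127-I722, pH 7.4, incubated 45 min at room temperature. IC50 values from fitted polarization curves are reported as categories A (≤100 nM), B, C, D (>10 μM).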

[2] = molecular target: T2, Recombinant STAT6 protein (STAT6(W123-T658)) (Homo sapiens, UniProt P42226); assay: STAT6 Fluorescence Polarization (FP) Assay; format: binding; conditions: STAT6(W123-T658) 250 nM, probe 5-FAM-ApYKPFQDLI-NH2 2 nM, 45-minute incubation
T2 construct: STAT6(W123-T658)
T2 sequence (P42226 123-658): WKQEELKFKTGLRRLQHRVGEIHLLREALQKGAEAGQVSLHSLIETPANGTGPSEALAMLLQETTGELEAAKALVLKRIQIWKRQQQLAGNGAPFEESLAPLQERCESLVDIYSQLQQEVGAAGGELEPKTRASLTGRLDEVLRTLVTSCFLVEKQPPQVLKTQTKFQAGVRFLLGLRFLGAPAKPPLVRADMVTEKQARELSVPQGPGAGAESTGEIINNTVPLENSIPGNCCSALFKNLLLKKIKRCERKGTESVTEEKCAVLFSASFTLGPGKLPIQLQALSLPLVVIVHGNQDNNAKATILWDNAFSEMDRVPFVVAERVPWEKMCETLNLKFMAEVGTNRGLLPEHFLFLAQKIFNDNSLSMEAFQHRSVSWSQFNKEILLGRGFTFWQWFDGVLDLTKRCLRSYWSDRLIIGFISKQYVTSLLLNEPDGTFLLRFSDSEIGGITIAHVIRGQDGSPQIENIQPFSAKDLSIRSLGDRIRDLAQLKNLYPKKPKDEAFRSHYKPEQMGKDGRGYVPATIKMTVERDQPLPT
How it was run: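 Competitive displacement of a fluorescent phosphotyrosine peptide (2 nM) from recombinant STAT6 W123-T658 (250 nM), 45 min at room temperature in 10 mM HEPES pH 7.4, 50 mM NaCl, 2 mM DTT. mP fitted against log compound for IC50, grouped A (≤300 nM) to D (>30 μM).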

T1 sequence (P40763 127-722, species assumed): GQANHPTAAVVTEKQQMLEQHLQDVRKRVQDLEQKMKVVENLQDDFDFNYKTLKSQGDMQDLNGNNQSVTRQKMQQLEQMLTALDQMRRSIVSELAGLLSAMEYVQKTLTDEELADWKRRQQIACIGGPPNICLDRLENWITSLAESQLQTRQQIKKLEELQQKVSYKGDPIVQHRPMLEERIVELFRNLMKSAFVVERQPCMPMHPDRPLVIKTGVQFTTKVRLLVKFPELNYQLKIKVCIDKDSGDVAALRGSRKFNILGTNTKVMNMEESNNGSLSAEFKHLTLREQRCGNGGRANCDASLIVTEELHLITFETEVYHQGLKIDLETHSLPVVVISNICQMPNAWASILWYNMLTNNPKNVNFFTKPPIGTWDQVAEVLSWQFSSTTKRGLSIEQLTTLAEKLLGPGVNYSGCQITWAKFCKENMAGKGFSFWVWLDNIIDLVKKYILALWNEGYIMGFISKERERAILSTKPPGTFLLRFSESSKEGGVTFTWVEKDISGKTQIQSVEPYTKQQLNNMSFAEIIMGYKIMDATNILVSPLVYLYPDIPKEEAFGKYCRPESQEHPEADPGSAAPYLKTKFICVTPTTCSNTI

Row | SMILES | IC50 [1] [µM] | IC50 [2] [µM]
1 | CCc1ccncc1C1CN(C(=O)[C@@H]2CC[C@@H]3C[C@@H]4C[C@@H]4C[C@H](NC(=O)c4cc5cc(CP(=O)(O)O)ccc5s4)C(=O)N32)C1 [Example 343, ((2-(((3S,6S,7aR,8aS,9aR)-3-(3-(4-ethylpyridin-3-yl)azetidine-1-carbonyl)-5-oxodecahydro-1H-cyclopropa[d]pyrrolo[1,2-a]azocin-6-yl)carbamoyl)benzo[b]thiophen-5-yl)methyl)phosphonic acid] | < 0.1 | > 30
2 | O=C(N[C@H]1C[C@@H]2C[C@@H]2C[C@H]2CC[C@@H](C(=O)N3CC(Cc4cccc(F)c4)C3)N2C1=O)c1cc2cc(CP(=O)(O)O)ccc2s1 [Example 349, ((2-(((3S,6S,7aS,8aR,9aR)-3-(3-(3-fluorobenzyl)azetidine-1-carbonyl)-5-oxodecahydro-1H-cyclopropa[d]pyrrolo[1,2-a]azocin-6-yl)carbamoyl)benzo[b]thiophen-5-yl)methyl)phosphonic acid] | 0.1 to 1 | 3 to 30
3 | O=C(N[C@H]1C[C@@H]2C[C@@H]2C[C@H]2CC[C@@H](C(=O)N3CC(Oc4cccnc4)C3)N2C1=O)c1cc2cc(CP(=O)(O)O)ccc2s1 [Example 350, ((2-(((3S,6S,7aS,8aR,9aR)-5-oxo-3-(3-(pyridin-3-yloxy)azetidine-1-carbonyl)decahydro-1H-cyclopropa[d]pyrrolo[1,2-a]azocin-6-yl)carbamoyl)benzo[b]thiophen-5-yl)methyl)phosphonic acid] | 0.1 to 1 | 3 to 30
4 | O=C(N[C@H]1C[C@@H]2C[C@@H]2C[C@H]2CC[C@@H](C(=O)N3CC(Oc4ccccn4)C3)N2C1=O)c1cc2cc(CP(=O)(O)O)ccc2s1 [Example 351, ((2-(((3S,6S,7aS,8aR,9aR)-5-oxo-3-(3-(pyridin-2-yloxy)azetidine-1-carbonyl)decahydro-1H-cyclopropa[d]pyrrolo[1,2-a]azocin-6-yl)carbamoyl)benzo[b]thiophen-5-yl)methyl)phosphonic acid] | 0.1 to 1 | 3 to 30
5 | O=C(N[C@H]1C[C@@H]2C[C@@H]2C[C@H]2CC[C@@H](C(=O)N3CC(Cc4ccncc4)C3)N2C1=O)c1cc2cc(CP(=O)(O)O)ccc2s1 [Example 352, ((2-(((3S,6S,7aS,8aR,9aR)-5-oxo-3-(3-(pyridin-4-ylmethyl)azetidine-1-carbonyl)decahydro-1H-cyclopropa[d]pyrrolo[1,2-a]azocin-6-yl)carbamoyl)benzo[b]thiophen-5-yl)methyl)phosphonic acid] | 0.1 to 1 | > 30
6 | O=C(N[C@H]1C[C@@H]2C[C@@H]2C[C@H]2CC[C@@H](C(=O)N3CC(Cc4cncnc4)C3)N2C1=O)c1cc2cc(CP(=O)(O)O)ccc2s1 [Example 364, ((2-(((3S,6S,7aS,8aR,9aR)-5-oxo-3-(3-(pyrimidin-5-ylmethyl)azetidine-1-carbonyl)decahydro-1H-cyclopropa[d]pyrrolo[1,2-a]azocin-6-yl)carbamoyl)benzo[b]thiophen-5-yl)methyl)phosphonic acid] | 1 to 10 | > 30
7 | O=C(N[C@H]1C[C@@H]2C[C@@H]2C[C@H]2CC[C@@H](C(=O)N3CC(C(O)c4ccccc4)C3)N2C1=O)c1cc2cc(CP(=O)(O)O)ccc2s1 (stereo partly drawn) [Example 365, ((2-(((3S,6S,7aS,8aR,9aR)-3-(3-(hydroxy(phenyl)methyl)azetidine-1-carbonyl)-5-oxodecahydro-1H-cyclopropa[d]pyrrolo[1,2-a]azocin-6-yl)carbamoyl)benzo[b]thiophen-5-yl)methyl)phosphonic acid] | 1 to 10 | 3 to 30

The next lines start with the values.

Row | IC50 [1] [µM] | IC50 [2] [µM] | SMILES
8 | < 0.1 | 0.3 to 3 | O=C(N[C@H]1C[C@@H]2C[C@@H]2C[C@H]2CC[C@@H](C(=O)N[C@H]3CN(c4ncc[nH]4)C[C@@H]3F)N2C1=O)c1cc2cc(C(F)P(=O)(O)O)ccc2s1 (stereo partly drawn) [Example 339, (fluoro(2-(((3S,6S,7aS,8aR,9aR)-3-(((3S,4S)-4-fluoro-1-(1H-imidazol-2-yl)pyrrolidin-3-yl)carbamoyl)-5-oxodecahydro-1H-cyclopropa[d]pyrrolo[1,2-a]azocin-6-yl)carbamoyl)benzo[b]thiophen-5-yl)methyl)phosphonic acid]
9 | < 0.1 | 3 to 30 | NC(=O)N1C[C@H](NC(=O)[C@@H]2CC[C@@H]3C[C@H]4C[C@H]4C[C@H](NC(=O)c4cc5cc(C(F)P(=O)(O)O)ccc5s4)C(=O)N32)C(F)(F)C1 (stereo partly drawn) [Example 340, ((2-(((3S,6S,7aS,8aR,9aR)-3-(((S)-1-carbamoyl-4,4-difluoropyrrolidin-3-yl)carbamoyl)-5-oxodecahydro-1H-cyclopropa[d]pyrrolo[1,2-a]azocin-6-yl)carbamoyl)benzo[b]thiophen-5-yl)fluoromethyl)phosphonic acid]
10 | < 0.1 | 3 to 30 | CS(=N)(=O)CC1CN(C(=O)[C@@H]2CC[C@@H]3C[C@H]4C[C@H]4C[C@H](NC(=O)c4cc5cc(C(F)P(=O)(O)O)ccc5s4)C(=O)N32)C1 (stereo partly drawn) [Example 341, (fluoro(2-(((3S,6S,7aS,8aR,9aR)-3-(3-((S-methylsulfonimidoyl)methyl)azetidine-1-carbonyl)-5-oxodecahydro-1H-cyclopropa[d]pyrrolo[1,2-a]azocin-6-yl)carbamoyl)benzo[b]thiophen-5-yl)methyl)phosphonic acid]
11 | 1 to 10 | > 30 | O=C(N[C@H]1C[C@@H]2C[C@@H]2C[C@H]2CC[C@@H](C(=O)N3CC(Oc4ncccn4)C3)N2C1=O)c1cc2cc(CP(=O)(O)O)ccc2s1 [Example 342, ((2-(((3S,6S,7aS,8aR,9aR)-5-oxo-3-(3-(pyrimidin-2-yloxy)azetidine-1-carbonyl)decahydro-1H-cyclopropa[d]pyrrolo[1,2-a]azocin-6-yl)carbamoyl)benzo[b]thiophen-5-yl)methyl)phosphonic acid]
12 | 0.1 to 1 | 3 to 30 | O=C(N[C@H]1C[C@@H]2C[C@@H]2C[C@H]2CC[C@@H](C(=O)N[C@H]3CN(c4nc[nH]n4)C[C@@H]3F)N2C1=O)c1cc2cc(C(F)P(=O)(O)O)ccc2s1 (stereo partly drawn) [Example 347, (fluoro(2-(((3S,6S,7aS,8aR,9aR)-3-(((3S,4S)-4-fluoro-1-(1H-1,2,4-triazol-3-yl)pyrrolidin-3-yl)carbamoyl)-5-oxodecahydro-1H-cyclopropa[d]pyrrolo[1,2-a]azocin-6-yl)carbamoyl)benzo[b]thiophen-5-yl)methyl)phosphonic acid]
13 | < 0.1 | 3 to 30 | Cc1cn(C)c(N2C[C@H](NC(=O)[C@@H]3CC[C@@H]4C[C@H]5C[C@H]5C[C@H](NC(=O)c5cc6cc(C(F)P(=O)(O)O)ccc6s5)C(=O)N43)[C@@H](F)C2)n1 (stereo partly drawn) [Example 348, ((2-(((3S,6S,7aS,8aR,9aR)-3-(((3S,4S)-1-(1,4-dimethyl-1H-imidazol-2-yl)-4-fluoropyrrolidin-3-yl)carbamoyl)-5-oxodecahydro-1H-cyclopropa[d]pyrrolo[1,2-a]azocin-6-yl)carbamoyl)benzo[b]thiophen-5-yl)fluoromethyl)phosphonic acid]
14 | 0.1 to 1 | 3 to 30 | CC(=O)N1CC(NC(=O)[C@@H]2CC[C@@H]3C[C@H]4C[C@H]4C[C@H](NC(=O)c4cc5cc(C(F)P(=O)(O)O)ccc5s4)C(=O)N32)C(F)(F)C1 (stereo partly drawn) [Example 358, ((2-(((3S,6S,7aS,8aR,9aR)-3-((1-acetyl-4,4-difluoropyrrolidin-3-yl)carbamoyl)-5-oxodecahydro-1H-cyclopropa[d]pyrrolo[1,2-a]azocin-6-yl)carbamoyl)benzo[b]thiophen-5-yl)fluoromethyl)phosphonic acid]
15 | 0.1 to 1 | 3 to 30 | Cc1nc(N2C[C@H](NC(=O)[C@@H]3CC[C@@H]4C[C@H]5C[C@H]5C[C@H](NC(=O)c5cc6cc(C(F)P(=O)(O)O)ccc6s5)C(=O)N43)[C@@H](F)C2)n[nH]1 (stereo partly drawn) [Example 366, (fluoro(2-(((3S,6S,7aS,8aR,9aR)-3-(((3S,4S)-4-fluoro-1-(5-methyl-1H-1,2,4-triazol-3-yl)pyrrolidin-3-yl)carbamoyl)-5-oxodecahydro-1H-cyclopropa[d]pyrrolo[1,2-a]azocin-6-yl)carbamoyl)benzo[b]thiophen-5-yl)methyl)phosphonic acid]
16 | < 0.1 | 3 to 30 | Cn1ccnc1N1C[C@H](NC(=O)[C@@H]2CC[C@@H]3C[C@H]4C[C@H]4C[C@H](NC(=O)c4cc5cc(C(F)P(=O)(O)O)ccc5s4)C(=O)N32)[C@@H](F)C1 (stereo partly drawn) [Example 367, (fluoro(2-(((3S,6S,7aS,8aR,9aR)-3-(((3S,4S)-4-fluoro-1-(1-methyl-1H-imidazol-2-yl)pyrrolidin-3-yl)carbamoyl)-5-oxodecahydro-1H-cyclopropa[d]pyrrolo[1,2-a]azocin-6-yl)carbamoyl)benzo[b]thiophen-5-yl)methyl)phosphonic acid]
